The assay concerns the target T1, Glucocorticoid receptor (Homo sapiens, UniProt P04150).
T1 sequence (P04150 whole entry): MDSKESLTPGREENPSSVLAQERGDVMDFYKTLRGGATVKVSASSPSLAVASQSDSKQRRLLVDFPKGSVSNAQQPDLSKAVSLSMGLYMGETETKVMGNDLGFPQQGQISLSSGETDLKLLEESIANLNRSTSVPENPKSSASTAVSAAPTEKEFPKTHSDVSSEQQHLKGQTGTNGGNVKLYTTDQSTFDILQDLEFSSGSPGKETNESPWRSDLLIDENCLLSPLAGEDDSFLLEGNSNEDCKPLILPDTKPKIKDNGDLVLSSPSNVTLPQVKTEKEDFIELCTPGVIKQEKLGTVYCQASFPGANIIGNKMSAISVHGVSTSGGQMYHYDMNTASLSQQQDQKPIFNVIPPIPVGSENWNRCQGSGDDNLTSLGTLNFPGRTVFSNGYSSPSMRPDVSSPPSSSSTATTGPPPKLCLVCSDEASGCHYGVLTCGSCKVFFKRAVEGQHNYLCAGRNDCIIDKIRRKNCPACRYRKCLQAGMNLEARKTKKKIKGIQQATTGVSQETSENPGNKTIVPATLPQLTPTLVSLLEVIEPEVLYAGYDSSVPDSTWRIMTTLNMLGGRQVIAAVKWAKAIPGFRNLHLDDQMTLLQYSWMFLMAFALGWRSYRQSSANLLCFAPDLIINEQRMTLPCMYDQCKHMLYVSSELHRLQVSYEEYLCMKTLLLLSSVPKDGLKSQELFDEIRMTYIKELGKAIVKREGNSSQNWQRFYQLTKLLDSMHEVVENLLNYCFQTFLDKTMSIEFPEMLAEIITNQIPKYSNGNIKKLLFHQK
The assay can be described thus: GR Binding Assay. As to the method:
Binding of test compounds to the glucocorticoid receptor (GR) is determined using a fluorescence polarisation (FP) assay utilising a recombinant ligand binding domain (LBD) of GR. The test compounds are assessed by their ability to displace a fluorescently tagged ligand and detection of the resulting decrease in fluorescence polarisation.

A word on the Ki: it is a dissociation constant, usually derived from enzyme kinetics or from competition with a known ligand. A higher Ki goes with a looser hold on the target.

Molecule `Cc1cc2c(cnn2-c2ccc(F)cc2)cc1[C@@]12CN(S(=O)(=O)c3cnn(C)n3)C[C@@H]1[C@H]2C(=O)N1CCC1` [US20250115583, Example 59] registered an inhibition constant (Ki) of 360 nM.

`Cc1cc2c(cnn2-c2ccc(F)cc2)cc1[C@@]12CN(C(=O)c3nn(C)cc3Cl)C[C@@H]1[C@H]2c1ccccc1` [US20250115583, Example 178]: the inhibition constant (Ki) is 19 nM. Against the preceding molecule, the Ki is about 19-fold lower.

(Values after BindingDB's records for patent US20250115583 (Corcept Therapeutics, 2025).)
